Laboratory results taken from publication PMC6522510 (Nature Communications, 2019).
Structures can show the parent of a compound that is named as a salt.

How the values were obtained:
Test in all cases: cells
Design in all cases: species or system AML cell lines (8); Secondary HTS, 10-point dose-response in triplicate, Cell Titer Glo viability, four-parameter fit EC50
[1] = test system: MOLM-13; details: Homo sapiens, MOLM-13, 72 h, read-out: MOLM-13
[2] = test system: M07e; details: M-07e, 72 h, read-out: M07e
[3] = test system: U937; details: Homo sapiens, U-937, 72 h, read-out: U937
[4] = test system: ML-2; details: Homo sapiens, ML-2, 72 h, read-out: ML-2
[5] = test system: CMS; details: 72 h, read-out: CMS
[6] = test system: CHRF288-11; details: 72 h, read-out: CHRF288-11
[7] = test system: MV4-11; details: Homo sapiens, MV4-11, 72 h, read-out: MV4-11
[8] = test system: CMK; details: Homo sapiens, CMK, 72 h, read-out: CMK

Measured: EC50

O=c1[nH]c(=O)n([C@H]2C[C@H](O)[C@@H](CO)O2)cc1/C=C/Br [BRIVUDINE]
> 10 µM: [1] | [2] | [3] | [4] | [5] | [6] | [7] | [8]

CCc1cc2c(cc1N1CCC(N3CCOCC3)CC1)C(C)(C)c1[nH]c3cc(C#N)ccc3c1C2=O [CH5424802]
> 10 µM: [1] | [2] | [3] | [4] | [5] | [6] | [7] | [8]

Nc1nc(OCc2ccccc2)c2nc[nH]c2n1 [Compound O6-BENZYLGUANINE]
> 10 µM: [1] | [2] | [3] | [4] | [5] | [6] | [7] | [8]

CC(C)(C)c1nc(-c2cccc(NS(=O)(=O)c3c(F)cccc3F)c2F)c(-c2ccnc(N)n2)s1 [DABRAFENIB]
> 10 µM: [1] | [2] | [3] | [4] | [5] | [6] | [7] | [8]

Cn1cc(C2=C(c3cn(C4CCN(Cc5ccccn5)CC4)c4ccccc34)C(=O)NC2=O)c2ccccc21 [ENZASTAURIN]
> 10 µM: [1] | [2] | [3] | [4] | [5] | [6] | [7] | [8]

CC(C(=O)O)c1ccc(-c2ccccc2)c(F)c1 (stereo not drawn) [FLURBIPROFEN]
> 10 µM: [1] | [2] | [3] | [4] | [5] | [6] | [7] | [8]

CC(C)n1c(/C=C/C(O)CC(O)CC(=O)O)c(-c2ccc(F)cc2)c2ccccc21 (stereo not drawn) [FLUVASTATIN]
> 10 µM: [1] | [2] | [3] | [4] | [5] | [6] | [7] | [8]

Cc1c(Cn2c(C)nc3c(C(=O)O)cc(N4CCOCC4)cc32)cccc1C(F)(F)F [GSK-2636771]
> 10 µM: [1] | [2] | [3] | [4] | [5] | [6] | [7] | [8]

CCN(CCO)CCCC(C)Nc1ccnc2cc(Cl)ccc12 (stereo not drawn) [HYDROXYCHLOROQUINE]
> 10 µM: [1] | [2] | [3] | [4] | [5] | [6] | [7] | [8]

CC[C@H](Nc1ncnc2[nH]cnc12)c1nc2cccc(F)c2c(=O)n1-c1ccccc1 [IDELALISIB]
> 10 µM: [1] | [2] | [3] | [4] | [5] | [6] | [7] | [8]

O[C@@H]1CO[C@H]2[C@@H]1OC[C@@H]2O [ISOSORBIDE]
> 10 µM: [1] | [2] | [3] | [4] | [5] | [6] | [7] | [8]

CS(=O)(=O)CCNCc1ccc(-c2ccc3ncnc(Nc4ccc(OCc5cccc(F)c5)c(Cl)c4)c3c2)o1 [LAPATINIB]
> 10 µM: [1] | [2] | [3] | [4] | [5] | [6] | [7] | [8]

Nc1nc(OCc2cc(Br)cs2)c2[nH]cnc2n1 [LOMEGUATRIB]
> 10 µM: [1] | [2] | [3] | [4] | [5] | [6] | [7] | [8]

Cc1cccc(-c2nn3c(c2-c2ccnc4ccc(C(N)=O)cc24)CCC3)n1 [LY2157299]
> 10 µM: [1] | [2] | [3] | [4] | [5] | [6] | [7] | [8]

S=c1[nH]cnc2nc[nH]c12 [MERCAPTOPURINE]
> 10 µM: [1] | [2] | [3] | [4] | [5] | [6] | [7] | [8]

Clc1ccc(C(c2ccccc2Cl)C(Cl)Cl)cc1 (stereo not drawn) [MITOTANE]
> 10 µM: [1] | [2] | [3] | [4] | [5] | [6] | [7] | [8]

O=C(O)CC[C@H]1CC[C@@](c2cc(F)ccc2F)(S(=O)(=O)c2ccc(Cl)cc2)CC1 [MK-0752]
> 10 µM: [1] | [2] | [3] | [4] | [5] | [6] | [7] | [8]

COc1ccc2c(c1OC)C(=O)O[C@@H]2[C@H]1c2c(cc3c(c2OC)OCO3)CCN1C [NOSCAPINE HYDROCHLORIDE]
> 10 µM: [1] | [2] | [3] | [4] | [5] | [6] | [7] | [8]

CO[C@@H]1[C@@H](OC(N)=O)[C@@H](O)[C@H](Oc2ccc3c(O)c(NC(=O)c4ccc(O)c(CC=C(C)C)c4)c(=O)oc3c2C)OC1(C)C [NOVOBIOCIN SODIUM]
> 10 µM: [1] | [2] | [3] | [4] | [5] | [6] | [7] | [8]

CCN1CCN(c2ccc(Nc3cc(N(C)C(=O)Nc4c(Cl)c(OC)cc(OC)c4Cl)ncn3)cc2)CC1 [NVP-BGJ398]
> 10 µM: [1] | [2] | [3] | [4] | [5] | [6] | [7] | [8]

Cc1[nH]c(/C=C2\C(=O)Nc3ccccc32)c(C)c1CCC(=O)O [ORANTINIB]
> 10 µM: [1] | [2] | [3] | [4] | [5] | [6] | [7] | [8]
